Experimental data published in patent publication US20140371262A1, “PREVENTIVE AND/OR THERAPEUTIC AGENT FOR THROMBOEMBOLISM IN THROMBOEMBOLISM PATIENT WITH SEVERE RENAL IMPAIRMENT” (Daiichi Sankyo Company, Limited, priority 2011, published 2014).

How the values were obtained:
[1] = system: patients with moderate to-high-risk atrial fibrillation; assay: ENGAGE-AF TIMI-48 phase 3 study of edoxaban versus warfarin in atrial fibrillation
NVAF patients = assay: Late phase-II trial targeting NVAF patient in Japan (thromboembolic and bleeding events, 12 weeks); assay type: in vivo, human; conditions: 12 weeks
[2] = high-dose edoxaban (60 mg once daily, halved per criteria)
[3] = low-dose edoxaban (30 mg once daily, halved per criteria)
[4] = subgroup whose CLCR had become <30 mL/min during the trial, edoxaban 15 mg (N = 349), warfarin dose adjusted (N = 367)
[5] = 30 mg×1/day, 30 ≦ CLCR < 50 mL/min
[6] = 30 mg×1/day, 50 ≦ CLCR ≦ 80 mL/min
[7] = 45 mg×1/day, 30 ≦ CLCR < 50 mL/min
[8] = 45 mg×1/day, 50 ≦ CLCR ≦ 80 mL/min
[9] = 60 mg×1/day, 30 ≦ CLCR < 50 mL/min
[10] = 60 mg×1/day, 50 ≦ CLCR ≦ 80 mL/min

Q: For `CN1CCc2nc(C(=O)N[C@@H]3C[C@@H](C(=O)N(C)C)CC[C@@H]3NC(=O)C(=O)Nc3ccc(Cl)cn3)sc2C1` [edoxaban, N^1-(5-chloropyridin-2-yl)-N^2-((1S,2R,4S)-4-[(dimethylamino)carbonyl]-2-{[(5-methyl-4,5,6,7-tetrahydrothiazolo[5,4-c]pyridin-2-yl)carbonyl]amino}cyclohexyl)ethanediamide], which “Efficacy, safety and composite primary endpoint comprising ACM compared with warfarin” value ([1]; 15 mg dose regimen of edoxaban, subgroup CLCR <30 mL/min) is on record?
A: The value was “noninferior to warfarin”.

Q: What about the “Prevention of stroke or systemic embolism compared with warfarin” value ([1]; both once-daily regimens of edoxaban) of the same compound?
A: The value was “noninferior to warfarin”.

Q: What about the “Hazard ratio vs warfarin, death from cardiovascular causes” value ([1]; high-dose edoxaban) of the same compound?
A: The value was 0.86.

Q: What about the “Hazard ratio vs warfarin, key secondary end point” value ([1]; high-dose edoxaban) of the same compound?
A: The value was 0.87.

Q: And the “Hazard ratio vs warfarin, major bleeding” value ([1]; high-dose edoxaban)?
A: Its value is 0.80.

Q: What about the “Hazard ratio vs warfarin, primary end point during treatment” value ([1]; high-dose edoxaban) of the same compound?
A: Its value is 0.79.

Q: What about the “Hazard ratio vs warfarin, primary end point, intention-to-treat analysis” value ([1]; high-dose edoxaban) of the same compound?
A: The value was 0.87.

Q: What about the “Annualized rate of death from cardiovascular causes” value [1, 2] of the same compound?
A: Its value is 2.74%.

Q: And the “Annualized rate of major bleeding” value [1, 2]?
A: The value was 2.75%.

Q: And the “Annualized rate of the primary end point (stroke or systemic embolism) during treatment” value [1, 2]?
A: Its value is 1.18%.

Q: And the “Rate of the key secondary end point (composite of stroke, systemic embolism, or death from cardiovascular causes)” value [1, 2]?
A: The value was 3.85%.

Q: And the “Hazard ratio vs warfarin, death from cardiovascular causes” value ([1]; low-dose edoxaban)?
A: The value was 0.85.

Q: And the “Hazard ratio vs warfarin, key secondary end point” value ([1]; low-dose edoxaban)?
A: Its value is 0.95.

Q: What about the “Hazard ratio vs warfarin, major bleeding” value ([1]; low-dose edoxaban) of the same compound?
A: Its value is 0.47.

Q: What about the “Hazard ratio vs warfarin, primary end point during treatment” value ([1]; low-dose edoxaban) of the same compound?
A: Its value is 1.07.

Q: And the “Hazard ratio vs warfarin, primary end point, intention-to-treat analysis” value ([1]; low-dose edoxaban)?
A: The value was 1.13.

Q: What about the “Annualized rate of death from cardiovascular causes” value [1, 3] of the same compound?
A: The value was 2.71%.

Q: What about the “Annualized rate of major bleeding” value [1, 3] of the same compound?
A: Its value is 1.61%.

Q: And the “Annualized rate of the primary end point (stroke or systemic embolism) during treatment” value [1, 3]?
A: The value was 1.61%.

Q: What about the “Rate of the key secondary end point (composite of stroke, systemic embolism, or death from cardiovascular causes)” value [1, 3] of the same compound?
A: Its value is 4.23%.

Q: And the “ACM (all cause mortality): # of events” value [1, 4]?
A: Its value is 12.

Q: And the “ACM (all cause mortality): Event Rate” value [1, 4]?
A: The value was 1.95 %/yr.

Q: And the “Disabling Stroke: # of events” value [1, 4]?
A: The value was 3.

Q: And the “Disabling Stroke: Event Rate” value [1, 4]?
A: The value was 0.49 %/yr.

Q: And the “Fatal Bleed: # of events” value [1, 4]?
A: Its value is 2.

Q: And the “Fatal Bleed: Event Rate” value [1, 4]?
A: Its value is 0.33 %/yr.

Q: And the “Fatal SEE: # of events” value [1, 4]?
A: Its value is 0.

Q: What about the “Fatal SEE: Event Rate” value [1, 4] of the same compound?
A: Its value is 0.00 %/yr.

Q: What about the “Fatal Stroke: # of events” value [1, 4] of the same compound?
A: The value was 2.

Q: What about the “Fatal Stroke: Event Rate” value [1, 4] of the same compound?
A: The value was 0.33 %/yr.

Q: And the “First Disabling or Fatal Stroke, Fatal SEE, LT or Fatal Bleed, or ACM: # of events” value [1, 4]?
A: The value was 19.

Q: And the “First Disabling or Fatal Stroke, Fatal SEE, LT or Fatal Bleed, or ACM: Event Rate” value [1, 4]?
A: The value was 3.10 %/yr.

Q: And the “First Stroke, SEE or TIA: # of events” value [1, 4]?
A: The value was 15.

Q: And the “First Stroke, SEE or TIA: Event Rate” value [1, 4]?
A: The value was 2.48 %/yr.

Q: What about the “First Stroke, SEE, Major Bleed, or ACM: # of events” value [1, 4] of the same compound?
A: Its value is 39.

Q: What about the “First Stroke, SEE, Major Bleed, or ACM: Event Rate” value [1, 4] of the same compound?
A: The value was 6.46 %/yr.

Q: And the “LT Bleed (life threatening): # of events” value [1, 4]?
A: Its value is 2.

Q: And the “LT Bleed (life threatening): Event Rate” value [1, 4]?
A: The value was 0.33 %/yr.

Q: What about the “Bleeding event (major, clinically relevant non-major and minor in total), subjects with event/subjects” value (NVAF patients; [5]) of the same compound?
A: Its value is “(3/15)”.

Q: What about the “Incidence of bleeding event (major, clinically relevant non-major and minor bleeding in total)” value (NVAF patients; [5]) of the same compound?
A: Its value is 20.0%.

Q: And the “Incidence of major bleeding or clinically relevant non-major bleeding” value (NVAF patients; [5])?
A: The value was 6.7%.

Q: And the “Major bleeding or clinically relevant non-major bleeding, subjects with event/subjects” value (NVAF patients; [5])?
A: Its value is “(1/15)”.

Q: What about the “Bleeding event (major, clinically relevant non-major and minor in total), subjects with event/subjects” value (NVAF patients; [6]) of the same compound?
A: Its value is “(14/69)”.

Q: And the “Incidence of bleeding event (major, clinically relevant non-major and minor bleeding in total)” value (NVAF patients; [6])?
A: The value was 20.3%.

Q: What about the “Incidence of major bleeding or clinically relevant non-major bleeding” value (NVAF patients; [6]) of the same compound?
A: The value was 1.4%.

Q: What about the “Major bleeding or clinically relevant non-major bleeding, subjects with event/subjects” value (NVAF patients; [6]) of the same compound?
A: Its value is “(1/69)”.

Q: And the “Bleeding event (major, clinically relevant non-major and minor in total), subjects with event/subjects” value (NVAF patients; 30 mg×1/day, 80 < CLCR mL/min)?
A: The value was “(7/46)”.

Q: And the “Incidence of bleeding event (major, clinically relevant non-major and minor bleeding in total)” value (NVAF patients; 30 mg×1/day, 80 < CLCR mL/min)?
A: Its value is 15.2%.

Q: And the “Incidence of major bleeding or clinically relevant non-major bleeding” value (NVAF patients; 30 mg×1/day, 80 < CLCR mL/min)?
A: Its value is 0%.

Q: And the “Major bleeding or clinically relevant non-major bleeding, subjects with event/subjects” value (NVAF patients; 30 mg×1/day, 80 < CLCR mL/min)?
A: The value was “(0/46)”.

Q: And the “Bleeding event (major, clinically relevant non-major and minor in total), subjects with event/subjects” value (NVAF patients; [7])?
A: Its value is “(6/21)”.

Q: And the “Incidence of bleeding event (major, clinically relevant non-major and minor bleeding in total)” value (NVAF patients; [7])?
A: Its value is 28.6%.

Q: And the “Incidence of major bleeding or clinically relevant non-major bleeding” value (NVAF patients; [7])?
A: Its value is 9.5%.

Q: What about the “Major bleeding or clinically relevant non-major bleeding, subjects with event/subjects” value (NVAF patients; [7]) of the same compound?
A: The value was “(2/21)”.

Q: What about the “Bleeding event (major, clinically relevant non-major and minor in total), subjects with event/subjects” value (NVAF patients; [8]) of the same compound?
A: Its value is “(19/72)”.

Q: And the “Incidence of bleeding event (major, clinically relevant non-major and minor bleeding in total)” value (NVAF patients; [8])?
A: Its value is 26.4%.

Q: And the “Incidence of major bleeding or clinically relevant non-major bleeding” value (NVAF patients; [8])?
A: Its value is 4.2%.

Q: And the “Major bleeding or clinically relevant non-major bleeding, subjects with event/subjects” value (NVAF patients; [8])?
A: Its value is “(3/72)”.

Q: And the “Bleeding event (major, clinically relevant non-major and minor in total), subjects with event/subjects” value (NVAF patients; 45 mg×1/day, 80 < CLCR mL/min)?
A: The value was “(5/41)”.

Q: What about the “Incidence of bleeding event (major, clinically relevant non-major and minor bleeding in total)” value (NVAF patients; 45 mg×1/day, 80 < CLCR mL/min) of the same compound?
A: Its value is 12.2%.

Q: And the “Incidence of major bleeding or clinically relevant non-major bleeding” value (NVAF patients; 45 mg×1/day, 80 < CLCR mL/min)?
A: Its value is 4.9%.

Q: What about the “Major bleeding or clinically relevant non-major bleeding, subjects with event/subjects” value (NVAF patients; 45 mg×1/day, 80 < CLCR mL/min) of the same compound?
A: The value was “(2/41)”.

Q: What about the “Bleeding event (major, clinically relevant non-major and minor in total), subjects with event/subjects” value (NVAF patients; [9]) of the same compound?
A: The value was “(4/15)”.

Q: And the “Incidence of bleeding event (major, clinically relevant non-major and minor bleeding in total)” value (NVAF patients; [9])?
A: The value was 26.7%.

Q: What about the “Incidence of major bleeding or clinically relevant non-major bleeding” value (NVAF patients; [9]) of the same compound?
A: Its value is 0%.

Q: What about the “Major bleeding or clinically relevant non-major bleeding, subjects with event/subjects” value (NVAF patients; [9]) of the same compound?
A: The value was “(0/15)”.

Q: What about the “Bleeding event (major, clinically relevant non-major and minor in total), subjects with event/subjects” value (NVAF patients; [10]) of the same compound?
A: Its value is “(21/68)”.

Q: And the “Incidence of bleeding event (major, clinically relevant non-major and minor bleeding in total)” value (NVAF patients; [10])?
A: The value was 30.9%.

Q: What about the “Incidence of major bleeding or clinically relevant non-major bleeding” value (NVAF patients; [10]) of the same compound?
A: Its value is 10.3%.

Q: What about the “Major bleeding or clinically relevant non-major bleeding, subjects with event/subjects” value (NVAF patients; [10]) of the same compound?
A: The value was “(7/68)”.

Q: And the “Bleeding event (major, clinically relevant non-major and minor in total), subjects with event/subjects” value (NVAF patients; 60 mg×1/day, 80 < CLCR mL/min)?
A: Its value is “(10/46)”.

Q: And the “Incidence of bleeding event (major, clinically relevant non-major and minor bleeding in total)” value (NVAF patients; 60 mg×1/day, 80 < CLCR mL/min)?
A: Its value is 21.7%.

Q: What about the “Incidence of major bleeding or clinically relevant non-major bleeding” value (NVAF patients; 60 mg×1/day, 80 < CLCR mL/min) of the same compound?
A: The value was 0%.

Q: What about the “Major bleeding or clinically relevant non-major bleeding, subjects with event/subjects” value (NVAF patients; 60 mg×1/day, 80 < CLCR mL/min) of the same compound?
A: The value was “(0/46)”.

Q: What about the “Bleeding event (major, clinically relevant non-major and minor in total), subjects with event/subjects” value (NVAF patients; 60 mg×1/day, CLCR < 30 mL/min) of the same compound?
A: The value was “(1/1)”.

Q: What about the “Incidence of bleeding event (major, clinically relevant non-major and minor bleeding in total)” value (NVAF patients; 60 mg×1/day, CLCR < 30 mL/min) of the same compound?
A: The value was 100.0%.

Q: What about the “Incidence of major bleeding or clinically relevant non-major bleeding” value (NVAF patients; 60 mg×1/day, CLCR < 30 mL/min) of the same compound?
A: Its value is 0%.
